Test results as given in patent publication US20110105959A1, “Novel Methods for Bone Treatment by Modulating an Arachidonic Acid Metabolic or Signaling Pathway” (ACCELALOX, INC., priority 2008, published 2011).

Legend:
[1] = system: critical-size (8 mm) femur segmental defect; test: Critical-size femur segmental defect repaired with scaffold laden with ex vivo treated bone marrow; format: in vivo, Sprague-Dawley rats; details: for mineralized tissue in the femur segmental defect on radiographs: 2 weeks after implantation, marrow treated ex vivo, versus vehicle-bone marrow scaffold control; for bone remodeling at the fracture site compared to control rats: FIG. 10, bone marrow aspirate treated ex vivo prior to administration
Description: Critical-size (8 mm) segmental defects were made in the right femur of 450-500 g male Sprague-Dawley rats. The defects were repaired as described by Rai et al. [Combination of platelet-rich plasma with polycaprolactone-tricalcium phosphate scaffolds for segmental defect repair. Journal of Biomedical Materials Research 81A:888-899 (2007)] except the polycaprolactone-tricalcium phosphate scaffolds were filled with autologous bone marrow that was treated ex vivo as described below rather than with platelet-rich plasma.
Following induction of anesthesia, bone marrow was harvested from the left femur of each rat. A medial peripatellar incision was made to the left femur and the patella was dislocated laterally to provide access to the femoral condyles. Using an 18 gauge needle, a hole was drilled into the femoral canal and the bone marrow collected into the bore of the 18 gauge needle. The marrow was forced from the syringe needle into a small test tube using 100 μl of saline containing 20 units of heparin. The harvested marrow was then treated with the dimethyl sulfoxide (DMSO) or AA-861 (1 μl of 100 mg/ml in DMSO) which is a 5-LO inhibitor. After 5 minutes, 20 μl of a thrombin and CaCl2 solution (1,000 units thrombin per ml in 10% CaCl2) was added to each marrow sample. Each marrow sample was gently mixed and applied to a polycaprolactone-tricalcium phosphate scaffold that was set upright in a 0.2 ml tube. Each marrow-laden scaffold was incubated at room temperature for 10 minutes to allow clotting to occur and was then inserted into the femoral defects.
Critical-size femoral defects were made in male Sprague-Dawley rats as described above in EXAMPLE 7. The defects were treated with bone marrow laden scaffolds as described above. […] Journal of Medicinal Chemistry 43:721-735 (2000)] (FIG. 10C), or with (c) LY-255283 (5 μl of a 1 mg/ml solution in DMSO) which is a leukotriene B4 receptor antagonist [Herron et al. Leukotriene B4 receptor antagonists: the LY255283 series of hydroxyacetophenones. Journal of Medicinal Chemistry 35:1818-1828 (1992)] (FIG. 10D).

[2] = system: 8 mm diaphyseal segmental defect in the right femur; test: Femur segmental defect repaired with scaffold impregnated with calcium sulfate containing a leukotriene pathway modifier; format: in vivo, Sprague-Dawley rats; details: after 3 weeks of healing; local application in calcium sulfate, 1-5% w/w; FIG. 16
Source text: Male Sprague-Dawley rats underwent surgery during which an 8 mm diaphyseal, segmental defect in the right femur was made as described by Rai et al. [Combination of platelet-rich plasma with polycaprolactone-tricalcium phosphate scaffolds for segmental bone defect repair. Journal of Biomedical Materials Research […]:888-899 (2007)]. The defect was repaired with a polycaprolactone-tricalcium phosphate scaffold (8 mm long×3 mm diameter; Osteopore International, Singapore) or the scaffold impregnated with calcium sulfate containing a leukotriene pathway modifier. […] Journal of Medicinal Chemistry 43:721-735 (2000)]; and LY-255283 (1% w/w), a potent and specific leukotriene B4 receptor antagonist [Herron et al. Leukotriene B4 receptor antagonists: the LY255283 series of hydroxyacetophenones. Journal of Medicinal Chemistry 35:1818-1828 (1992)]. Healing of the segmental defects was assessed after 3 weeks of healing by radiographs (FIG. 16).

[3] = system: closed femur fracture; test: Closed femur fracture healing in rats treated with 5-LO inhibitors (radiographs, torsional mechanical testing); format: in vivo, Sprague-Dawley rats; details: for fracture bridging / healing on radiographs: Example 4, FIG. 8, NDGA 30 mg/kg or AA-861 5 mg/kg twice daily until day 21, 3 weeks of healing; for greater peak torque than vehicle treated rats: Example 4, FIG. 8D, torsional mechanical testing after 5 weeks of healing, NDGA 30 mg/kg, AA-861 5 mg/kg; for mode of femur failure in torsional mechanical testing: Example 4, after 5 weeks of healing
Description: Sprague-Dawley rats (3 months old) underwent a standard closed femur fracture procedure as described in the art [Simon et al., Cyclo-oxygenase 2 function is essential for bone fracture healing. Journal of Bone and Mineral Research, 17: 963-976 (2002); Bonnarens and Einhorn, Production of a standard closed fracture in laboratory animal bone. Journal of Orthopaedic Research, 2: 97-101 (1984)]. The impending fracture was stabilized with an intramedullary stainless steel pin. Beginning 4 hours after fracture the rats were treated with 30 mg/kg of NDGA (nordihydrogaiaretic acid) in 1% methylcellulose (5-lipoxygenase inhibitor treatment group) or with carrier only (1% methylcellulose). The day after surgery and continuing until day 14 post-fracture, experimental rats were treated with 2 doses of NDGA (30 mg/kg), the first dose between […] and then again with another NDGA dose 8-10 hours later. Control rats were treated similarly but with carrier only (1% methylcellulose). Three weeks after fracture, the rats were sacrificed, the fractured femurs were harvested, and high resolution radiographs were made of the fractured femurs using a Packard Faxitron and Kodak MinR2000 mammography film. Two representative radiographs are shown in FIG. 7 for each treatment group: control and 5-lipoxygenase (5-LO) inhibitor treated.
Sprague-Dawley rats (3 months old) underwent a standard closed femur fracture procedure as described in the art (Simon et al., Cyclo-oxygenase 2 function is essential for bone fracture healing. Journal of Bone and Mineral Research, 17: 963-976 (2002); Bonnarens and Einhorn, Production of a standard closed fracture in laboratory animal bone. Journal of Orthopaedic Research, 2: 97-101 (1984)]. The impending fracture was stabilized with an intramedullary stainless steel pin. Beginning 4 hours after fracture the rats were treated with vehicle (1% methylcellulose) or inhibitors of 5-LO suspended in 1% methylcellulose. Inhibitor A (NDGA) was administered at 30 mg/kg and Inhibitor B (AA-861) was administered at 5 mg/kg. The day after surgery and continuing until day 21 post-fracture, experimental rats were treated with 2 doses of inhibitor (either A or B), the first dose between 8-10 AM and then again with another dose 8-10 hours later. Control rats were treated similarly but with carrier only (1% methylcellulose). Three weeks after fracture the rats were anesthetized and high resolution radiographs were made of the fractured femurs using a Packard Faxitron and Kodak MinR2000 mammography film (FIGS. 8A, 8B, and 8C). Five weeks after fracture the rats were sacrificed, femurs resected, and assayed for structural mechanical properties by torsional mechanical testing (FIG. 8D).

[4] = system: 5-lipoxygenase or LTA4 hydrolase activity measured by the level of LTB4 in platelet-rich plasma; test: Ex vivo treatment of platelet-rich plasma, leukotriene B4 levels by enzyme-linked immune-assay; format: cell-based, rat; details: FIG. 9; 1 ug/ml; activated with thrombin and calcium chloride
Source text: Platelet-rich plasma is used clinically to augment fracture healing and other osteogenic processes [Wrotniak et al. Current opinion about using the platelet-rich gel in orthopaedics and trauma surgery. […] Platelet-rich plasma is enriched with platelets and white blood cells from whole blood by centrifugal separation. White blood cells, such as, macrophages, monocytes, and neutrophils, are a major source of 5-lipoxygenase activity [Woods et al. 5-lipoxygenase and 5-lipoxygenase-activating protein are localized in the nuclear envelope of activated human leukocytes.
Male Sprague-Dawley rats (450-500 g body weight) were used. Platelet-rich plasma was prepared as described previously using differential centrifugation [Gandhi et al. The effects of local platelet rich plasma delivery on diabetic fracture healing. […] Five minutes after drug treatment, the treated platelet-rich plasma was activated by addition of thrombin (100 units/ml) and calcium chloride (10 mg/ml) followed by incubation for 15 minutes at 37° C. The reaction was stopped and the platelet-rich plasma was separated by high-speed centrifugation (14,000 RPM). The supernatant was collected and assayed for leukotriene B4 levels using a commercial enzyme-linked immune-assay from Cayman Chemicals, Ann Arbor, Mich.

[5] = system: Saos-2 cells; details: in vitro; LTB4 at higher concentration (0.3-1 micromolar); cited from earlier work
[6] = system: primary rat calvaria (osteoblast) cultures; details: in vitro; cited from earlier work
[7] = system: G292 cells; details: in vitro; LTB4 at higher concentration (0.3-1 micromolar); cited from earlier work
[8] = system: fetal rat calvaria (osteoblast) cells; details: in vitro; cited from earlier work
[9] = system: mouse calvaria; details: in vitro organ culture; cited from earlier work

Compound	mineralized tissue in the femur segmental defect on radiographs [1]	bone remodeling at the fracture site compared to control rats [1]	bone formation in the segmental defect region on radiographs compared to scaffold-only group [2]	activity of 5-lipoxygenase or LTA4 hydrolase, measured by the level of the LTB4 metabolite, in platelet-rich plasma [4]	Saos-2 cell proliferation [5]	alkaline phosphatase activity [8]	bone nodule formation [8]	further results
c1ccc(-c2ccc(OCCN3CCCC3)cc2)cc1 [SC-22716, 1-[2-(4-Phenylphenoxy)ethyl]pyrrolidine]	more extensive mineralized tissue	more extensive bone remodeling	significantly more bone formation					
CC1=C(C)C(=O)C(CCCCC#CCCCC#CCO)=C(C)C1=O [AA-861, 2-(12-hydroxydodeca-5,10-diynyl)-3,5,6-trimethyl-1,4-benzoquinone]	more extensive mineralized tissue	more extensive bone remodeling	significantly more bone formation	significantly reduces	no effect			fracture bridging / healing on radiographs [3]: fractures healing faster; greater peak torque than vehicle treated rats [3]: 53%; mode of femur failure in torsional mechanical testing [3]: failed as boney unions
CCCCC/C=C\C\C=C/C=C/C=C/[C@@H](SC[C@H](NC(=O)CC[C@H](N)C(=O)O)C(=O)NCC(=O)O)[C@@H](O)CCCC(=O)O [LTC4, leukotriene C4]					no effect			proliferation of primary rat calvaria (osteoblast) cultures [6]: no effect; G292 cell proliferation [7]: promote proliferation
CC(C)c1ccc2c(c1)c(SC(C)(C)C)c(CC(C)(C)C(=O)O)n2Cc1ccc(Cl)cc1 [MK-886, 3-[1-(4-chlorobenzyl)-3-t-butyl-thio-5-isopropylindol-2-yl]-2,2-dimethylpropanoic acid]			significantly more bone formation	significantly reduces				
5-hydroxyeicosatetraenoic acid [5-HETE]						reduce	reduce	BMP2 induced increase in mouse calvaria thickness [9]: prevented
CC(Cc1ccc(O)c(O)c1)C(C)Cc1ccc(O)c(O)c1 (centres unmarked) [NDGA, nordihydroguaiaretic acid]								fracture bridging / healing on radiographs [3]: fractures healing faster; greater peak torque than vehicle treated rats [3]: 22%; mode of femur failure in torsional mechanical testing [3]: failed as boney unions
CCc1cc(C(C)=O)c(O)cc1OCCCCCC(C)(C)c1nnn[nH]1 [LY-255283, 1-(5-ethyl-2-hydroxy-4-(6-methyl-6-(1H-tetrazol-5-yl)-heptyloxy)phenyl)ethanone]	some evident mineralized tissue	more extensive bone remodeling	significantly more bone formation					
CC(c1cc2ccccc2s1)N(O)C(N)=O (centres unmarked) [zileuton, N-(1-benzo[b]thien-2-ylethyl)-N-hydroxyurea]		more extensive bone remodeling		significantly reduces				
CCCCC/C=C\C\C=C/C=C/C=C/[C@@H](SC[C@H](N)C(=O)NCC(=O)O)[C@@H](O)CCCC(=O)O [LTD4, leukotriene D4]						no effect	no effect	
CCCCC/C=C\C[C@@H](O)/C=C/C=C/C=C\[C@@H](O)CCCC(=O)O [LTB4, leukotriene B4]					promote proliferation	reduce	reduce	BMP2 induced increase in mouse calvaria thickness [9]: prevented; proliferation of primary rat calvaria (osteoblast) cultures [6]: reduces proliferation; G292 cell proliferation [7]: promote proliferation
